Usually Ki stands for a dissociation constant, usually derived from enzyme kinetics or from competition with a known ligand.

Results on 1 compound are retold here after BindingDB's records for doi:10.1021/jm991119p (The Institute of Cancer Research, 2000).

Structures are written as SMILES.

This assay has as its target reduced folate carrier 1 (Mus musculus). In words: Affinity towards RFC (Reduced folate carrier) measured by the inhibition of [3H]MTX uptake.

On to `C#CCN(Cc1cc2c(=O)[nH]c(C)nc2cc1C)c1ccc(C(=O)N[C@@H](CCC(=O)N[C@H](CCC(=O)O)C(=O)O)C(=O)O)cc1`, for which the Ki is 200 µM.
